From paper PMC9583092 (ACS Omega, 2022)
Where “and” joins values, the source holds several entries; their conditions need not be identical. Equal values may be shown once. Read-outs that look alike come from different tables or passages of the source. Non-standard residues stand in square brackets, D forms with d. Residues, ends and D or L forms follow the SMILES beside them. *: point of attachment. Gly(N(CH2)2(3-indolyl)) = O=C(O)CNCCc1c[nH]c2ccccc12; Gly(Nα-4-Cl-benzyl) = O=C(O)CNCc1ccc(Cl)cc1; N(4-Br-benzyl)Gly = O=C(O)CNCc1ccc(Br)cc1; N(tridecyl)Gly = CCCCCCCCCCCCCNCC(=O)O; N(4-F-Bzl)Gly = O=C(O)CNCc1ccc(F)cc1; NBzl(4-I)Gly = O=C(O)CNCc1ccc(I)cc1; Gly(N-2-aminoethyl) = NCCNCC(=O)O; NFurfurylGly = O=C(O)CNCc1ccco1; X1 = CCCCCCCCN(CCCCCCCC)CC(=O)*; Gly(N-cHex) = O=C(O)CNC1CCCCC1; X2 = CCCCCCN(CCCCCC)CC(=O)*; Nphe = O=C(O)CNCc1ccccc1; Nlys = NCCCCNCC(=O)O

Tests used:
C. neoformans [1] = assay: MIC determination, broth microdilution; type: cell-based, Cryptococcus neoformans; conditions: RPMI-MOPS, 72 h at 35 °C, no visual growth, twofold dilutions 200–1.56 μg/mL, biological triplicate
C. neoformans [2] = conditions: RMG8-8 parameters from previously published results; cited from earlier work
[3] = result in words; cited from earlier work
fungi = conditions: killed fungi rapidly; cited from earlier work
[4] = system: HepG2 hepatocellular carcinoma cells; conditions: human liver cells; RMG8-8 parameters from previously published results; cited from earlier work
[5] = calculated distribution coefficient at pH 7.4; RMG8-8 parameters from previously published results; cited from earlier work
C. albicans = conditions: cited from earlier work

Row | Compound | C. neoformans MIC (C. neoformans [1]) | also measured
1 | CCCCCCCCCCCCCNCC(=O)N(CC(=O)N(CCCC[N+](C)(C)C)CC(=O)N(CC[N+](C)(C)C)CC(=O)N(CC(N)=O)C1CCCCC1)C1CCCCC1 [Compound 1] | 12.5 µg/mL | –
2 | CCCCCCCCN(CCCCCCCC)CC(=O)N(CC(=O)N(CCCCN)CC(=O)N(CCN)CC(=O)N(CC(N)=O)C1CCCCC1)C1CCCCC1 [Compound 7] (X1-[Gly(N-cHex)][Nlys][Gly(N-2-aminoethyl)][Gly(N-cHex)]-NH2) | 6.25 µg/mL | –
3 | CCCCCCCCCCCCCNCC(=O)N(CC(=O)N(CCCCN)CC(=O)N(CCCCN)CC(=O)N(CC(N)=O)C1CCCCC1)C1CCCCC1 [Compound 2] (H-[N(tridecyl)Gly][Gly(N-cHex)][Nlys][Nlys][Gly(N-cHex)]-NH2) | 3.13 µg/mL | –
4 | CCCCCCCCCCCCCNCC(=O)N(CC(=O)N(CCCCN)CC(=O)N(CCN)CC(=O)N(CC(N)=O)C1CCCCC1)C1CCCCC1 [RMG8-8] (H-[N(tridecyl)Gly][Gly(N-cHex)][Nlys][Gly(N-2-aminoethyl)][Gly(N-cHex)]-NH2) | – | C. neoformans MIC (C. neoformans [2]): 1.56 µg/mL; proteolytic stability [3]: proteolytically stable; t1/2 of fungal killing (fungi): 6.5 min; HepG2 TD50 [4]: 189 µg/mL and 189 ± 43 µg/mL; cLogD7.4 [5]: –2.38; C. albicans MIC (C. albicans): 25 µg/mL
5 | CCCCCCCCCCCCCNCC(=O)N(CC(=O)N(CCCCN)CC(=O)N(CCN)CC(=O)N(CC(N)=O)Cc1ccco1)Cc1ccco1 [Compound 24] (H-[N(tridecyl)Gly][NFurfurylGly][Nlys][Gly(N-2-aminoethyl)][NFurfurylGly]-NH2) | 3.13 to 6.25 µg/mL | –
6 | CCCCCCN(CCCCCC)CC(=O)N(CC(=O)N(CCCCN)CC(=O)N(CCN)CC(=O)N(CC(N)=O)C1CCCCC1)C1CCCCC1 [Compound 6] (X2-[Gly(N-cHex)][Nlys][Gly(N-2-aminoethyl)][Gly(N-cHex)]-NH2) | 100 µg/mL | –
7 | CCCCCCCCCCCCCNCC(=O)N(CC(=O)N(CCCCN)CC(=O)N(CCN)CC(=O)N(CC(N)=O)Cc1ccccc1)Cc1ccccc1 [Compound 15] (H-[N(tridecyl)Gly][Nphe][Nlys][Gly(N-2-aminoethyl)][Nphe]-NH2) | 1.56 to 3.13 µg/mL | –

More lines, main results first:

Row | C. neoformans MIC (C. neoformans [1]) | Compound | also measured
8 | 3.13 µg/mL | CCCCCCCCCCCCCNCC(=O)N(CC(=O)N(CCCCN)CC(=O)N(CCN)CC(=O)N(CC(N)=O)Cc1ccc(Br)cc1)Cc1ccc(Br)cc1 [Compound 19] (H-[N(tridecyl)Gly][N(4-Br-benzyl)Gly][Nlys][Gly(N-2-aminoethyl)][N(4-Br-benzyl)Gly]-NH2) | –
9 | 6.25 µg/mL | CCCCCCCCCCCCCNCC(=O)N(CC(=O)N(CCCCN)CC(=O)N(CCN)CC(=O)N(CC(N)=O)Cc1ccc(I)cc1)Cc1ccc(I)cc1 [Compound 20] (H-[N(tridecyl)Gly][NBzl(4-I)Gly][Nlys][Gly(N-2-aminoethyl)][NBzl(4-I)Gly]-NH2) | –
10 | 1.56 to 3.13 µg/mL | CCCCCCCCCCCCCNCC(=O)N(CCc1c[nH]c2ccccc12)CC(=O)N(CCCCN)CC(=O)N(CCN)CC(=O)N(CCc1c[nH]c2ccccc12)CC(N)=O [Compound 23] (H-[N(tridecyl)Gly][Gly(N(CH2)2(3-indolyl))][Nlys][Gly(N-2-aminoethyl)][Gly(N(CH2)2(3-indolyl))]-NH2) | –
11 | 3.13 µg/mL | CCCCCCCCCCCCCNCC(=O)N(CC(=O)N(CCCCN)CC(=O)N(CCN)CC(=O)N(CC(N)=O)Cc1ccc(Cl)cc1)Cc1ccc(Cl)cc1 [Compound 18] (H-[N(tridecyl)Gly][Gly(Nα-4-Cl-benzyl)][Nlys][Gly(N-2-aminoethyl)][Gly(Nα-4-Cl-benzyl)]-NH2) | –
12 | 1.56 to 3.13 µg/mL | CCCCCCCCCCCCCNCC(=O)N(CC(=O)N(CCCCN)CC(=O)N(CCN)CC(=O)N(CC(N)=O)Cc1ccc(F)cc1)Cc1ccc(F)cc1 [Compound 17] (H-[N(tridecyl)Gly][N(4-F-Bzl)Gly][Nlys][Gly(N-2-aminoethyl)][N(4-F-Bzl)Gly]-NH2) | –
